Experimental findings from patent publication US12365667B2, “Sulfone pyridine alkyl amide-substituted heteroaryl compounds” (BRISTOL-MYERS SQUIBB COMPANY, priority 2017, dated 2025) are described below.

Read-outs that look alike come from different tables or passages of the source.

The test system of the experiment is IFNα-induced STAT phosphorylation (pSTAT5) in human whole blood. Briefly: IFNα-Induced STAT Phosphorylation in Human Whole Blood. Type of experiment: cell-based. Conditions: 1 h incubation with compound, 1000 U/mL recombinant human IFNα A/D for 15 min, pSTAT5 in CD3 positive population, read-out: IFNα-Induced Stat Phosph. (IC50). Here is the method: IFNα-Induced STAT Phosphorylation in Human Whole Blood
After an hour long incubation with compound, human whole blood (drawn with either EDTA or ACD-A as anti-coagulant) was stimulated with 1000 U/mL recombinant human IFNα A/D (R&D Systems 11200-2) for 15 min. The stimulation was stopped by adding Fix/Lyse buffer (BD 558049). Cells were stained with a CD3 FITC antibody (BD 555916), washed, and permeabilized on ice using Perm III buffer (BD 558050). Cells were then stained with an Alexa-Fluor 647 pSTAT5 (pY694) antibody (BD 612599) for 30 min prior to analysis on the FACS Canto II. The amount of pSTAT5 expression was quantitated by median fluorescence intensity after gating on the CD3 positive population.

As a reminder, the IC50 is the point on the concentration scale where inhibition reaches its midpoint. For `CCCn1cc(Nc2cc(Nc3ncccc3S(C)(=O)=O)c(C(=O)NC)nn2)nn1` [Example 57], the IC50 stood at 59 nM. Same read-out and setting: next, `CNC(=O)c1nnc(NC(=O)C2CC(F)C2)cc1Nc1ncccc1S(C)(=O)=O` (single isomer, unassigned) [Example 125]: 272 nM. Turning to `CCC(=O)Nc1cc(Nc2ncccc2S(C)(=O)=O)c(C(=O)NC)nn1` [Example 8], the half-inhibitory concentration (IC50) came out at 49 nM.

Consider `CNC(=O)c1nnc(Nc2cc(C(C)(C)NC(C)C)ccn2)cc1Nc1ncccc1S(C)(=O)=O` [Example 72], for which the half-maximal inhibitory concentration (IC50) was 23 nM. Regarding `CNC(=O)c1nnc(Nc2cn(C3CC3)nn2)cc1Nc1ncccc1S(C)(=O)=O` [Example 56], the IC50 is 18 nM. Same read-out and setting: next, `CNC(=O)c1nnc(NC(=O)C2CC2(C)C)cc1Nc1nc(C)ccc1S(C)(=O)=O` (centres unmarked) [Example 198]: 262 nM; `CNC(=O)c1cnc(Nc2cc(C3CC3)nc(C3CC3)n2)cc1Nc1ncccc1S(C)(=O)=O` [Example 228]: 181 nM. `CNC(=O)c1nnc(Nc2cc(Cl)c(C(C)(C)O)cn2)cc1Nc1nc(OC)ccc1S(C)(=O)=O` [Example 202]: the half-inhibitory concentration (IC50) stood at 50 nM. The same measure, in the same setting: the value for `CNC(=O)c1nnc(Nc2ccccn2)cc1Nc1ncccc1S(C)(=O)=O` [Example 160] was 11 nM; that for `CNC(=O)c1nnc(Nc2cncc(C(F)(F)F)n2)cc1Nc1ncccc1S(C)(=O)=O` [Example 127] was 302 nM. On to `CNC(=O)c1nnc(Nc2ccc(OC(F)(F)F)cn2)cc1Nc1ncccc1S(C)(=O)=O` [Example 140], for which the 50% inhibitory concentration (IC50) was 34 nM.

As to `CNC(=O)c1cnc(Nc2ccccn2)cc1Nc1ncccc1S(C)(=O)=O` [Example 216], the IC50 is 28 nM. On to `CNC(=O)c1nnc(Nc2cc(N(C)C)ncn2)cc1Nc1ncccc1S(C)(=O)=O` [Example 34], for which the IC50 was 115 nM. Same read-out and setting: the value for `CCNC(=O)c1nnc(Nc2cc(C3CC3)nc(C)n2)cc1Nc1ncccc1S(C)(=O)=O` [compound 212] was 1080 nM; that for `CNC(=O)c1cnc(NC(=O)C2CC2)cc1Nc1nc(C)ccc1S(C)(=O)=O` [Example 242] was 50 nM. On the same count and under the same terms, next, `CNC(=O)c1nnc(NC(=O)OC)cc1Nc1ncccc1S(C)(=O)=O` [Example 112]: 142 nM. The same measure, in the same setting: the value for `CNC(=O)c1nnc(Nc2ccc(N3CCOCC3)cn2)cc1Nc1nc(C)ccc1S(C)(=O)=O` [Example 192] was 13 nM. For the compound `CNC(=O)c1nnc(Nc2ccn(C3CC3)n2)cc1Nc1ncccc1S(C)(=O)=O` [Example 167], the IC50 is 60 nM. Regarding `CNC(=O)c1nnc(NC(=O)COCc2ccccc2)cc1Nc1ncccc1S(C)(=O)=O` [Example 133], the concentration for half-maximal inhibition (IC50) stood at 1570 nM. As for `CNC(=O)c1cnc(Nc2ccc(Cl)cn2)cc1Nc1ncccc1S(C)(=O)=O` [Example 217], the IC50 came out at 52 nM. Same read-out and setting: next, `CNC(=O)c1nnc(Nc2cc(C3CC3)ccn2)cc1Nc1nc(C)ccc1S(C)(=O)=O` [Example 197]: 58 nM. On the same count and under the same terms, next, `CNC(=O)c1cnc(Nc2cc(C3CC3)nc(C)n2)cc1Nc1ncccc1S(C)(=O)=O` [Example 229]: 47 nM; `CNC(=O)c1cnc(Nc2cc(C#N)c(C)cn2)cc1Nc1ncccc1S(C)(=O)=O` [Example 230]: 22 nM. With `[2H]C([2H])([2H])NC(=O)c1nnc(NC(=O)C2CC(F)(F)C2)cc1Nc1ncccc1S(C)(=O)=O` [Example 177, 6-(3,3-difluorocyclobutane-1-carboxamido)-N-(methyl-d3)-4-((3-(methylsulfonyl)pyridin-2-yl)amino)pyridazine-3-carboxamide], under “Homo sapiens”, the IC50 worked out at 648 nM. Turning to `CCc1cnc(Nc2cc(Nc3ncccc3S(C)(=O)=O)c(C(=O)NC)nn2)cn1` [Example 39], the IC50 was determined as 15 nM. Same read-out and setting: the value for `CNC(=O)c1nnc(Nc2ccc(-c3ccccc3)cn2)cc1Nc1ncccc1S(C)(=O)=O` [Example 102] was 138 nM.
